# Key:
# [1] = target: T1, vanilloid receptor 1 (VR1/TRPV1) of the rat (Rattus norvegicus, UniProt O35433); assay: FLIPR Ca2+ functional study on rat vanilloid receptor 1 (rat dorsal root ganglia cells or CHO K1 cells transfected with rat VR1); type: cell-based; conditions: for activation at 10 µM / inhibition at 10 µM: CHO-K1, test compound 10 μM; for activation at 10 µM: % activation based on Ca2+ signal after 10 μM capsaicin (CP), read-out: VR1 (rat) (% stimulation compared to 10 μM CP); for inhibition at 10 µM: suppression of Ca2+ current after 100 nM capsaicin, relative to maximum inhibition with 10 μM capsaicin (CP), read-out: VR1 (rat) (% inhibition compared to 10 μM CP); for EC50: FLIPR, agonistic action
# T1 construct: host or cells: rat dorsal root ganglia primary cells (Ia) or CHO K1 cells stably transfected with the rat VR1 gene (Ib)
# Procedure: The agonistic or antagonistic action of the substances to be studied on the vanilloid receptor 1 (VR1/TRPV1) of the rat species can be determined with the following assay. In this assay, the Ca^2+ current through the receptor channel is quantified with the aid of a Ca^2+-sensitive dye (Fluo-4 type, Molecular Probes Europe BV, Leiden the Netherlands) in a fluorescent imaging plate reader (FLIPR, Molecular Devices, Sunnyvale, USA).
# Complete medium: 50 ml HAMS F12 Nutrient Mixture (Gibco Invitrogen GmbH, Karlsruhe, Germany) with
# 10% by volume of FCS (fetal calf serum, Gibco Invitrogen GmbH, Karlsruhe, Germany, heat-inactivated);
# 2 mM L-glutamine (Sigma, Munich, Germany);
# 1% by weight of AA solution (antibiotic/antimycotic solution, PAA, Pasching, Austria) and 25 ng/ml of NGF medium (2.5 S, Gibco Invitrogen GmbH, Karlsruhe, Germany)
# Cell culture plate: poly-D-lysine-coated, black 96-hole plates with a clear bottom (96 well black/clear plate, BD Biosciences, Heidelberg, Germany) are additionally coated with laminin (Gibco Invitrogen GmbH, Karlsruhe, Germany) by diluting laminin to a concentration of 100 μg/ml with PBS (Ca—Mg-free PBS, Gibco Invitrogen GmbH, Karlsruhe, Germany). Aliquots having a concentration of 100 μg/ml of laminin are withdrawn and stored at −20° C. The aliquots are diluted with PBS in a ratio of 1:10 to 10 μg/ml of laminin and in each case 50 μl of the solution are pipetted into a well of the cell culture plate. The cell culture plates are incubated at 37° C. for at least two hours, the supernatant solution is removed by suction and the wells are each washed twice with PBS. The coated cell culture plates are stored with supernatant PBS which is not removed until directly before the application of the cells.
# The spinal column is removed from beheaded rats and placed directly into cold HBSS buffer (Hank's buffered saline solution, Gibco Invitrogen GmbH, Karlsruhe, Germany), i.e. placed in an ice bath, which has been admixed with 1% by volume of an AA solution (antibiotic/antimycotic solution, PAA, Pasching, Austria). The spinal column is severed longitudinally and removed from the spinal canal together with fasciae. Subsequently, the dorsal root ganglia (DRGs) are removed and in turn stored in cold HBSS buffer admixed with 1% by volume of an […]. The DRGs freed completely of blood residues and spinal nerves are in each case transferred to 500 μl of cold type 2 collagenase (PAA, Pasching, Austria) and incubated at 37° C. for 35 minutes. After addition of 2.5% by volume of trypsin (PAA, Pasching, Austria), incubation is continued at 37° C. for a further 10 minutes. After complete incubation, the enzyme solution is cautiously pipetted off and the remaining DRGs are each admixed with 500 μl of complete medium.
# The DRGs are each suspended repeatedly, drawn through cannulas No. 1, No. 12 and No. 16 by means of a syringe and transferred to 50 ml Falcon tubes which are made up to 15 ml with complete medium. The contents of each Falcon tube are in each case filtered through a 70 μm Falcon filter insert and centrifuged at 1200 revolutions and room temperature for 10 minutes. The resulting pellet is in each case taken up in 250 μl of complete medium and the cell count is determined.
# The number of cells in the suspension is adjusted to 3 times 10^5 per ml and in each case 150 μl of this suspension are added to one well of the cell culture plates coated as described above. In the incubator, the plates are left to stand at 37° C., 5% by volume of CO2 and 95% relative air humidity for two to three days.
# Subsequently, the cells are laden with 2 μM Fluo-4 and 0.01% by volume of Pluronic F127 (Molecular Probes Europe BV, Leiden, the Netherlands) in HBSS buffer (Hank's buffered saline solution, Gibco Invitrogen GmbH, Karlsruhe, Germany) at 37° C. for 30 min, washed 3× with HBSS buffer and, after a further incubation of 15 minutes, used in the FLIPR assay at room temperature for Ca^2+ measurement. […]
# [2] = target: T2, human vanilloid receptor 1 (VR1) (Homo sapiens, UniProt Q8NER1); assay: FLIPR Ca2+ functional study on human vanilloid receptor 1 (CHO K1 cells transfected with human VR1); type: cell-based; conditions: for inhibition at 10 µM: CHO-K1, test compound 10 μM, suppression of Ca2+ current after 100 nM capsaicin, relative to maximum inhibition with 10 μM capsaicin (CP), read-out: VR1 (human) (% inhibition compared to 10 μM CP); for EC50: FLIPR, agonistic action
# T2 construct: expressed in transfected cells; host or cells: CHO K1 cells (ECACC), stably transfected
# Procedure: Chinese hamster ovary cells (CHO K1 cells, European Collection of Cell Cultures (ECACC), England) are transfected stably with the human vanilloid receptor 1 (VR1) gene or the vanilloid receptor 1 (VR1) gene of the rat. For functional studies, these cells are plated out onto poly-D-lysine-coated black 96-well plates with a clear bottom (BD Biosciences, Heidelberg, Germany) in a density of 25 000 cells/well. The cells are incubated overnight at 37° C. and 5% CO2 in culture medium (Ham's Nutrient Mixture F12, Gibco Invitrogen GmbH, Karlsruhe, Germany) with 10% by volume of FBS (fetal bovine serum, Gibco Invitrogen GmbH, Karlsruhe, Germany), and 18 μg/ml of L-proline (Gibco Invitrogen GmbH, Karlsruhe, Germany). The next day, the cells are laden with 2 μM Fluo-4 and 0.01% by volume of Pluronic F127 (Molecular Probes Europe BV, Leiden, The Netherlands) in HBSS buffer (Hank's buffered saline solution, Gibco Invitrogen GmbH, Karlsruhe, Germany) at 37° C. for 30 min. Subsequently, the plates are washed 3 times with HBSS buffer and, after a further incubation of 15 minutes at room temperature, used for Ca^2+ measurement in the FLIPR assay. The Ca^2+-dependent fluorescence is measured before and after addition of substances λex=488 nm, λem=540 nm). The quantification is effected by measuring the highest fluorescence intensity (FC, fluorescence counts) over the time.
# The FLIPR protocol consists of 2 substance additions. First, the compounds to be tested (10 μM) are pipetted onto the cells obtained according to Ia or Ib and the Ca^2+ current is compared with the control (capsaicin 10 μM). This gives rise to the result in % activation based on the Ca^2+ signal after addition of 10 μM capsaicin (CP). After incubation for 5 minutes, 100 nM capsaicin is applied and the current of Ca^2+ is likewise determined.
# Desensitizing agonists and antagonists lead to a suppression in the Ca^2+ current. % inhibition is calculated compared to the maximum achievable inhibition with 10 μM capsaicin.
# Triple determinations (n=3) are performed and they are repeated in at least 3 independent experiments (N=4).
# T2 sequence (Q8NER1 whole entry): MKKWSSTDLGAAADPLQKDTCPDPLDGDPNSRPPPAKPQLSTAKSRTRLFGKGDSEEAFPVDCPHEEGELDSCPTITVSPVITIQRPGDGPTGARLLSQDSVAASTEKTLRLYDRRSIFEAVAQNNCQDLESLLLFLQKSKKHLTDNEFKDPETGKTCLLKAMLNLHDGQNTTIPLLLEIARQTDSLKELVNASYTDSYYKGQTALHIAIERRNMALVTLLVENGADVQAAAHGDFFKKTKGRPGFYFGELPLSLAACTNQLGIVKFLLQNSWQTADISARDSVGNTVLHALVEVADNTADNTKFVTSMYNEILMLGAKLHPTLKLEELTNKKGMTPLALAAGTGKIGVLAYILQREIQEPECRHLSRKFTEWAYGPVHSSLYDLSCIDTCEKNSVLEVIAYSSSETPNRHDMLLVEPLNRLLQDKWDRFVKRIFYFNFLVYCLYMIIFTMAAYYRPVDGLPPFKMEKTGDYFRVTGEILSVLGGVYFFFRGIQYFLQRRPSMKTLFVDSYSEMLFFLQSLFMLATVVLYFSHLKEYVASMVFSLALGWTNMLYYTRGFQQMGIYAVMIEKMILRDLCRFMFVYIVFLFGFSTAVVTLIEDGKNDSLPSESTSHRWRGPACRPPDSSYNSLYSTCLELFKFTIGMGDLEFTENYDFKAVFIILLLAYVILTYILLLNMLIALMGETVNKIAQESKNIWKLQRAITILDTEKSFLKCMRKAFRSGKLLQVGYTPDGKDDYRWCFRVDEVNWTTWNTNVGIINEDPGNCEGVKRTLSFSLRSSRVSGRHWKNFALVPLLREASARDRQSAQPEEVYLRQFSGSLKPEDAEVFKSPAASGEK
# T1 sequence (O35433 whole entry): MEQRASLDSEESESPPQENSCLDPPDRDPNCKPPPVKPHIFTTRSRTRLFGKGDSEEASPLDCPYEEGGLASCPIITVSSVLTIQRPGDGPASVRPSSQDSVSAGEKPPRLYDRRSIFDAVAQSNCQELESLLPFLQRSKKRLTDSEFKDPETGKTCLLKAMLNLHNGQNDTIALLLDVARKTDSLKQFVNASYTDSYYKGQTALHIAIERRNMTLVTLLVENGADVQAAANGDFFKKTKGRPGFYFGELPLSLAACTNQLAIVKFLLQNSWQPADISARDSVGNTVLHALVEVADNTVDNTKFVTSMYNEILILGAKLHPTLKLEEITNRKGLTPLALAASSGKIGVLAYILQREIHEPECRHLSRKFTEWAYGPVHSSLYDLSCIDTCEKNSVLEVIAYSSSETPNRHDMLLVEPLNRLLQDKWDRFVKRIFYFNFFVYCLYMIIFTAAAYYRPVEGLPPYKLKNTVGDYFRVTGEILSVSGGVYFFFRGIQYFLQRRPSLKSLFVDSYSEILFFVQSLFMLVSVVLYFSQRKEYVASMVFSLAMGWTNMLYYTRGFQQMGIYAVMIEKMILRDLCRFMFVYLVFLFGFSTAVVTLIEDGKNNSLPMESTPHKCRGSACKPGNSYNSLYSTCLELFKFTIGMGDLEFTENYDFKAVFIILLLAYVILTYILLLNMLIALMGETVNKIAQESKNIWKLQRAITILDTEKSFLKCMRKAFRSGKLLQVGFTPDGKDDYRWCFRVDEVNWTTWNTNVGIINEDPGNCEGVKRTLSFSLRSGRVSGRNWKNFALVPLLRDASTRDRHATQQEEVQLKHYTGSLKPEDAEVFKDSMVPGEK
compound,measurement,setting,value
"COc1ccc(NC(=O)OCC2(COC(=O)Nc3ccc(OC)cc3)CSc3ccccc3C2=O)cc1 [Example Compound 42, 3,3-bis(4-methoxyphenylcarbamoyloxymethyl)thiochroman-4-one]",activation at 10 µM,[1],37.8%
same,inhibition at 10 µM,[1],41.1%
same,EC50,[1],9.95 µM
same,melting point,,58 to 63 °C
same,inhibition at 10 µM,[2],73.2%
same,EC50,[2],3.05 µM
"Cc1ccc2c(c1)[S+]([O-])CC(COC(=O)Nc1ccccc1)(COC(=O)Nc1ccccc1)C2=O (stereo not drawn) [Example Compound 47, 3,3-bis(phenylcarbamoyloxymethyl)-7-methyl-1-oxo-1λ^4-thiochroman-4-one]",activation at 10 µM,[1],11.8%
same,inhibition at 10 µM,[1],61.5%
same,EC50,[1],20.3 µM
same,melting point,,65 to 73 °C
same,inhibition at 10 µM,[2],59.2%
same,EC50,[2],13.4 µM
"Cc1ccc2c(c1)S(=O)(=O)CC(COC(=O)Nc1ccccc1)(COC(=O)Nc1ccccc1)C2=O [Example Compound 48, 3,3-bis(phenylcarbamoyloxymethyl)-7-methyl-1,1-dioxo-1λ^6-thiochroman-4-one]",activation at 10 µM,[1],64.9%
same,inhibition at 10 µM,[1],88.8%
same,EC50,[1],3.4 µM
same,melting point,,85 to 95 °C
same,inhibition at 10 µM,[2],81.1%
same,EC50,[2],1.85 µM

# Source: patent publication US7973072B2, “Substituted benzo-condensed cyclohexanone derivatives and the use thereof for medicament production” (Gruenenthal GmbH, priority 2005, dated 2011)
